Where a name gives a salt, the structure may show the parent alone.

Broadly, the melting point is the temperature of the solid-liquid transition.

In the case of `CN(CCCc1ccc(Cl)cc1F)[C@H]1CC[C@H](c2ccc3[nH]c(=O)oc3c2)CC1` (as salt: HCl) [Example 45b, 6-(trans-4-{[3-(4-Chloro-2-fluorophenyl)propyl]methylamino}cyclohexyl)-3H-benzoxazol-2-one], the melting point fell in the range of 274 to 275 °C.

Turning to `Cc1ccc(CCCN(C)[C@H]2CC[C@H](c3ccc4[nH]c(=O)oc4c3)CC2)cc1` (as salt: HCl) [Example 21, 6-{trans-4-[Methyl-3-(p-Tolylpropyl)amino]cyclohexyl}-3H-benzoxazol-2-one], the melting point lay in the range of 213 to 225 °C.

`O=c1[nH]c2ccc([C@H]3CC[C@H](NCCS(=O)(=O)c4ccccc4)CC3)cc2o1` (as salt: HCl) [Example 16, 6-[trans-4-(2-Benzenesulfonylethylamino)cyclohexyl]-3H-benzoxazol-2-one] yielded a melting point of 202 to 208 °C.

The compound `O=c1[nH]c2ccc([C@H]3CC[C@H](NCCSc4ccc(F)cc4)CC3)cc2o1` (as salt: HCl) [Example 8, 6-{trans-4-[2-(4-Fluorophenylsulfanyl)ethylamino]cyclohexyl}-3H-benzoxazol-2-one] yielded a melting point of 254 to 256 °C.

`CCN(CCCc1ccc(F)cc1)[C@H]1CC[C@H](c2ccc3[nH]c(=O)oc3c2)CC1` (as salt: HCl) [Example 25, 6-(trans-4-{Ethyl-[3-(4-fluorophenyl)propyl]amino}cyclohexyl)-3H-benzoxazol-2-one] returned a melting point of 228 to 231 °C.

In the case of `CN(CCN(C)[C@H]1CC[C@H](c2ccc3[nH]c(=O)oc3c2)CC1)c1ccccc1` (as salt: HCl) [Example 60, 6-(trans-4-{Methyl-[2-(Methylphenylamino)ethyl]amino}cyclohexyl)-3H-benzoxazol-2-one], the melting point lay within 240 to 243 °C.

Consider `C[C@H](N[C@H]1CC[C@H](c2ccc3[nH]c(=O)oc3c2)CC1)[C@H](O)c1ccccc1` (stereo in doubt) (as salt: HCl) [Example 12, 6-{trans-4-[(1S,2R)-2-Hydroxy-1-methyl-2-phenylethylamino]cyclohexyl}-3H-benzoxazol-2-one], for which the melting point fell in the range of 251 to 256 °C.

Compound `O=c1[nH]c2ccc([C@H]3CC[C@H](NCCSc4ccccc4)CC3)cc2o1` (as salt: HCl) [Example 5a, 6-[trans-4-(2-Phenylsulfanylethylamino)cyclohexyl]-3H-benzoxazol-2-one] yielded a melting point of 241 to 243 °C.

Compound `CC(C)Cc1ccc(CCCN(C)[C@H]2CC[C@H](c3ccc4[nH]c(=O)oc4c3)CC2)cc1` (as salt: HCl) [Example 56, 6-(trans-4-{[3-(4-Isobutylphenyl)propyl]methylamino}cyclohexyl)-3H-benzoxazol-2-one] had a melting point of 162 to 165 °C.

`CN(CCCC1CCCCC1)[C@H]1CC[C@H](c2ccc3[nH]c(=O)oc3c2)CC1` (as salt: HCl) [Example 49b, 6-{trans-4-[(3-Cyclohexylpropyl)methylamino]cyclohexyl}-3H-benzoxazol-2-one] displayed a melting point of 247 to 251 °C.

In the case of `C[C@H](CCc1ccccc1)N[C@H]1CC[C@H](c2ccc3[nH]c(=O)oc3c2)CC1` (as salt: HCl) [Example 9, 6-{trans-4-[(R)-1-Methyl-3-phenylpropylamino]cyclohexyl}-3H-benzoxazol-2-one], the melting point was in the range of 291 to 304 °C.

The compound `CN(CCCc1ccsc1)[C@H]1CC[C@H](c2ccc3[nH]c(=O)oc3c2)CC1` (as salt: HCl) [Example 52b, 6-[trans-4-{[3-(3-Thiophen-3-yl)propyl]methylamino}cyclohexyl)-3H-benzoxazol-2-one] had a melting point of 246 to 248 °C.

For the compound `Cc1cc2[nH]c(=O)oc2cc1[C@H]1CC[C@H](N(C)CCCc2ccc(F)cc2)CC1` (as salt: salt) [Example 64, 6-(4-{[3-(4-Fluorophenyl)propyl]methyl-amino}cyclohexyl)-5-methyl-3H-benzoxazol-2-one], the melting point was 264 to 267 °C.

The record behind these values is US6794402B2, “Bicyclic cyclohexylamines and their use as NMDA receptor antagonists” (Warner-Lambert Company, priority 2000, dated 2004).
